ChEMBL document CHEMBL3046007, “Isonicotinic acid hydrazide derivatives: synthesis, antimicrobial activity, and QSAR studies” (Med Chem Res, 2012)
≈ marks a conversion by molar mass, not a printed value.

Tested on: Candida albicans
Experiment: Antimicrobial activity against Candida albicans after 48 hr by serial dilution method
Format: functional
Conditions: not given

| SMILES | -logMIC |
| --- | --- |
| COc1cccc(OC)c1/C=N/N(C(=O)c1ccccc1)C(=O)c1ccncc1 | 3.1 |
| Cc1ccc(/C=N/N(C(=O)c2ccccc2)C(=O)c2ccncc2)cc1 | 2.74 |
| O=C(c1ccccc1)N(/N=C/c1ccccc1O)C(=O)c1ccncc1 | 3.04 |
| O=C(NNC(=O)c1cc([N+](=O)[O-])ccc1Cl)c1ccncc1 | 2.41 |
| O=C(NNC(=O)c1ccc(Cl)cc1)c1ccncc1 | 2.64 |

Tested on: Coxsackievirus B4
Experiment: Antiviral activity against Human coxsackievirus B4 infected Vero cells assessed as inhibition of virus-induced cytopathicity
Format: functional, organism-based
Conditions: Enterovirus B

| SMILES | EC50 |
| --- | --- |
| COc1cccc(OC)c1/C=N/N(C(=O)c1ccccc1)C(=O)c1ccncc1 | > 20 µg/mL |
| Cc1ccc(/C=N/N(C(=O)c2ccccc2)C(=O)c2ccncc2)cc1 | > 20 µg/mL |

Tested on: Vesicular stomatitis virus
Experiment: Antiviral activity against Vesicular stomatitis virus infected human HeLa cells assessed as inhibition of virus-induced cytopathicity
Format: functional, organism-based
Conditions: not given

| SMILES | EC50 |
| --- | --- |
| COc1cccc(OC)c1/C=N/N(C(=O)c1ccccc1)C(=O)c1ccncc1 | > 4 µg/mL |
| Cc1ccc(/C=N/N(C(=O)c2ccccc2)C(=O)c2ccncc2)cc1 | > 20 µg/mL |

Tested on: Human immunodeficiency virus 1
Experiment: Antiviral activity against Human immunodeficiency virus 1 IIIB infected human MT4 cells assessed as inhibition of virus-induced cytopathicity
Format: functional, organism-based
Conditions: not given

| SMILES | EC50 |
| --- | --- |
| COc1cccc(OC)c1/C=N/N(C(=O)c1ccccc1)C(=O)c1ccncc1 | > 12 µg/mL |
| Cc1ccc(/C=N/N(C(=O)c2ccccc2)C(=O)c2ccncc2)cc1 | > 42 µg/mL |
| O=C(NNC(=O)c1cc([N+](=O)[O-])ccc1Cl)c1ccncc1 | > 116 µg/mL |
| O=C(NNC(=O)c1ccc(Cl)cc1)c1ccncc1 | > 120 µg/mL |

Tested on: not listed separately
Experiment: Cytotoxicity against Homo sapiens (human) HeLa cells
Format: cell-based
Conditions: not given

| SMILES | MCC |
| --- | --- |
| COc1cccc(OC)c1/C=N/N(C(=O)c1ccccc1)C(=O)c1ccncc1 | 20 µg/mL |
| Cc1ccc(/C=N/N(C(=O)c2ccccc2)C(=O)c2ccncc2)cc1 | 100 µg/mL |

Tested on: Sindbis virus
Experiment: Antiviral activity against Sindbis virus infected Vero cells assessed as inhibition of virus-induced cytopathicity
Format: functional, organism-based
Conditions: not given

| SMILES | EC50 |
| --- | --- |
| COc1cccc(OC)c1/C=N/N(C(=O)c1ccccc1)C(=O)c1ccncc1 | > 20 µg/mL |
| Cc1ccc(/C=N/N(C(=O)c2ccccc2)C(=O)c2ccncc2)cc1 | > 20 µg/mL |

Tested on: not listed separately
Experiment: Cytotoxicity against Homo sapiens (human) HEL cells
Format: cell-based
Conditions: not given

| SMILES | MCC |
| --- | --- |
| COc1cccc(OC)c1/C=N/N(C(=O)c1ccccc1)C(=O)c1ccncc1 | > 100 µg/mL |
| Cc1ccc(/C=N/N(C(=O)c2ccccc2)C(=O)c2ccncc2)cc1 | > 100 µg/mL |

Tested on: Escherichia coli
Experiment: Antimicrobial activity against Escherichia coli after 24 hr by serial dilution method
Format: functional
Conditions: not given

| SMILES | -logMIC |
| --- | --- |
| COc1cccc(OC)c1/C=N/N(C(=O)c1ccccc1)C(=O)c1ccncc1 | 2.49 |
| Cc1ccc(/C=N/N(C(=O)c2ccccc2)C(=O)c2ccncc2)cc1 | 2.44 |
| O=C(c1ccccc1)N(/N=C/c1ccccc1O)C(=O)c1ccncc1 | 2.44 |
| O=C(NNC(=O)c1cc([N+](=O)[O-])ccc1Cl)c1ccncc1 | 2.11 |
| O=C(NNC(=O)c1ccc(Cl)cc1)c1ccncc1 | 1.74 |

Tested on: Coxsackievirus B4
Experiment: Antiviral activity against Human coxsackievirus B4 infected human HeLa cells assessed as inhibition of virus-induced cytopathicity
Format: functional, organism-based
Conditions: Enterovirus B

| SMILES | EC50 |
| --- | --- |
| COc1cccc(OC)c1/C=N/N(C(=O)c1ccccc1)C(=O)c1ccncc1 | > 4 µg/mL |
| Cc1ccc(/C=N/N(C(=O)c2ccccc2)C(=O)c2ccncc2)cc1 | > 20 µg/mL |

Tested on: not listed separately
Experiment: Cytotoxicity against Homo sapiens (human) MT4 cells
Format: cell-based
Conditions: not given

| SMILES | CC50 |
| --- | --- |
| COc1cccc(OC)c1/C=N/N(C(=O)c1ccccc1)C(=O)c1ccncc1 | 12 µg/mL (≈ 30.8 µM) |
| Cc1ccc(/C=N/N(C(=O)c2ccccc2)C(=O)c2ccncc2)cc1 | 42 µg/mL (≈ 122 µM) |
| O=C(NNC(=O)c1cc([N+](=O)[O-])ccc1Cl)c1ccncc1 | 116 µg/mL (≈ 361 µM) |
| O=C(NNC(=O)c1ccc(Cl)cc1)c1ccncc1 | > 120 µg/mL |

Tested on: Vaccinia virus
Experiment: Antiviral activity against Vaccinia virus infected human HEL cells assessed as inhibition of virus-induced cytopathicity
Format: functional, organism-based
Conditions: Orthopoxvirus vaccinia

| SMILES | EC50 |
| --- | --- |
| COc1cccc(OC)c1/C=N/N(C(=O)c1ccccc1)C(=O)c1ccncc1 | > 100 µg/mL |
| Cc1ccc(/C=N/N(C(=O)c2ccccc2)C(=O)c2ccncc2)cc1 | > 100 µg/mL |

Tested on: Human alphaherpesvirus 1
Experiment: Antiviral activity against Human herpesvirus 1 strain KOS infected in human HEL cells assessed as inhibition of virus-induced cytopathicity
Format: functional, organism-based
Conditions: Human alphaherpesvirus 1, KOS

| SMILES | EC50 |
| --- | --- |
| COc1cccc(OC)c1/C=N/N(C(=O)c1ccccc1)C(=O)c1ccncc1 | > 100 µg/mL |
| Cc1ccc(/C=N/N(C(=O)c2ccccc2)C(=O)c2ccncc2)cc1 | > 100 µg/mL |

Tested on: Human alphaherpesvirus 1
Experiment: Antiviral activity against TK(-) aciclovir-resistant Human herpesvirus 1 strain KOS infected in human HEL cells assessed as inhibition of virus-induced cytopathicity
Format: functional, organism-based
Conditions: Human alphaherpesvirus 1, KOS

| SMILES | EC50 |
| --- | --- |
| COc1cccc(OC)c1/C=N/N(C(=O)c1ccccc1)C(=O)c1ccncc1 | > 100 µg/mL |
| Cc1ccc(/C=N/N(C(=O)c2ccccc2)C(=O)c2ccncc2)cc1 | > 100 µg/mL |

Tested on: not listed separately
Experiment: Cytotoxicity against Chlorocebus aethiops (African green monkey) Vero cells assessed as alteration in cell morphology
Format: cell-based
Conditions: chlorocebus sabaeus

| SMILES | MCC |
| --- | --- |
| COc1cccc(OC)c1/C=N/N(C(=O)c1ccccc1)C(=O)c1ccncc1 | 100 µg/mL |
| Cc1ccc(/C=N/N(C(=O)c2ccccc2)C(=O)c2ccncc2)cc1 | ≥ 20 µg/mL |

Tested on: Respiratory syncytial virus
Experiment: Antiviral activity against Respiratory syncytial virus infected human HeLa cells assessed as inhibition of virus-induced cytopathicity
Format: functional, organism-based
Conditions: not given

| SMILES | EC50 |
| --- | --- |
| COc1cccc(OC)c1/C=N/N(C(=O)c1ccccc1)C(=O)c1ccncc1 | > 4 µg/mL |
| Cc1ccc(/C=N/N(C(=O)c2ccccc2)C(=O)c2ccncc2)cc1 | > 20 µg/mL |

Tested on: Human alphaherpesvirus 2
Experiment: Antiviral activity against Human herpesvirus 2 strain G infected human HEL cells assessed as inhibition of virus-induced cytopathicity
Format: functional, organism-based
Conditions: Human alphaherpesvirus 2, strain G

| SMILES | EC50 |
| --- | --- |
| COc1cccc(OC)c1/C=N/N(C(=O)c1ccccc1)C(=O)c1ccncc1 | > 100 µg/mL |
| Cc1ccc(/C=N/N(C(=O)c2ccccc2)C(=O)c2ccncc2)cc1 | > 100 µg/mL |

Tested on: Human respirovirus 3
Experiment: Antiviral activity against Human parainfluenza virus 3 infected Vero cells assessed as inhibition of virus-induced cytopathicity
Format: functional, organism-based
Conditions: Human respirovirus 3, Vero

| SMILES | EC50 |
| --- | --- |
| COc1cccc(OC)c1/C=N/N(C(=O)c1ccccc1)C(=O)c1ccncc1 | > 20 µg/mL |
| Cc1ccc(/C=N/N(C(=O)c2ccccc2)C(=O)c2ccncc2)cc1 | > 20 µg/mL |

Tested on: Staphylococcus aureus
Experiment: Antimicrobial activity against Staphylococcus aureus after 24 hr by serial dilution method
Format: functional
Conditions: not given

| SMILES | -logMIC |
| --- | --- |
| COc1cccc(OC)c1/C=N/N(C(=O)c1ccccc1)C(=O)c1ccncc1 | 2.49 |
| Cc1ccc(/C=N/N(C(=O)c2ccccc2)C(=O)c2ccncc2)cc1 | 2.44 |
| O=C(c1ccccc1)N(/N=C/c1ccccc1O)C(=O)c1ccncc1 | 1.84 |
| O=C(NNC(=O)c1cc([N+](=O)[O-])ccc1Cl)c1ccncc1 | 2.11 |
| O=C(NNC(=O)c1ccc(Cl)cc1)c1ccncc1 | 2.34 |

Tested on: Punta Toro virus
Experiment: Antiviral activity against Punta Toro virus infected Vero cells assessed as inhibition of virus-induced cytopathicity
Format: functional, organism-based
Conditions: not given

| SMILES | EC50 |
| --- | --- |
| COc1cccc(OC)c1/C=N/N(C(=O)c1ccccc1)C(=O)c1ccncc1 | > 20 µg/mL |
| Cc1ccc(/C=N/N(C(=O)c2ccccc2)C(=O)c2ccncc2)cc1 | > 20 µg/mL |

Tested on: Human immunodeficiency virus 2
Experiment: Antiviral activity against Human immunodeficiency virus type 2 (ISOLATE ROD) infected human MT4 cells assessed as inhibition of virus-induced cytopathicity
Format: functional, organism-based
Conditions: Human immunodeficiency virus 2, ISOLATE ROD

| SMILES | EC50 |
| --- | --- |
| COc1cccc(OC)c1/C=N/N(C(=O)c1ccccc1)C(=O)c1ccncc1 | > 12 µg/mL |
| Cc1ccc(/C=N/N(C(=O)c2ccccc2)C(=O)c2ccncc2)cc1 | > 42 µg/mL |
| O=C(NNC(=O)c1cc([N+](=O)[O-])ccc1Cl)c1ccncc1 | > 116 µg/mL |
| O=C(NNC(=O)c1ccc(Cl)cc1)c1ccncc1 | > 120 µg/mL |

Tested on: Mammalian orthoreovirus 1
Experiment: Antiviral activity against Mammalian orthoreovirus 1 infected Vero cells assessed as inhibition of virus-induced cytopathicity
Format: functional, organism-based
Conditions: Mammalian orthoreovirus 1, Vero

| SMILES | EC50 |
| --- | --- |
| COc1cccc(OC)c1/C=N/N(C(=O)c1ccccc1)C(=O)c1ccncc1 | > 20 µg/mL |
| Cc1ccc(/C=N/N(C(=O)c2ccccc2)C(=O)c2ccncc2)cc1 | > 20 µg/mL |

Tested on: Bacillus subtilis
Experiment: Antimicrobial activity against Bacillus subtilis after 24 hr by serial dilution method
Format: functional
Conditions: not given

| SMILES | -logMIC |
| --- | --- |
| COc1cccc(OC)c1/C=N/N(C(=O)c1ccccc1)C(=O)c1ccncc1 | 2.49 |
| Cc1ccc(/C=N/N(C(=O)c2ccccc2)C(=O)c2ccncc2)cc1 | 2.14 |
| O=C(c1ccccc1)N(/N=C/c1ccccc1O)C(=O)c1ccncc1 | 2.44 |
| O=C(NNC(=O)c1cc([N+](=O)[O-])ccc1Cl)c1ccncc1 | 2.11 |
| O=C(NNC(=O)c1ccc(Cl)cc1)c1ccncc1 | 2.34 |

Tested on: Aspergillus niger
Experiment: Antimicrobial activity against Aspergillus niger after 7 days by serial dilution method
Format: functional
Conditions: not given

| SMILES | -logMIC |
| --- | --- |
| COc1cccc(OC)c1/C=N/N(C(=O)c1ccccc1)C(=O)c1ccncc1 | 2.49 |
| Cc1ccc(/C=N/N(C(=O)c2ccccc2)C(=O)c2ccncc2)cc1 | 2.44 |
| O=C(c1ccccc1)N(/N=C/c1ccccc1O)C(=O)c1ccncc1 | 2.44 |
| O=C(NNC(=O)c1cc([N+](=O)[O-])ccc1Cl)c1ccncc1 | 2.41 |
| O=C(NNC(=O)c1ccc(Cl)cc1)c1ccncc1 | 1.74 |
